In patent US11141452B2, “Bifunctional compounds for relief of pain comprising an opioid receptor agonist moiety and a NK1 receptor antagonist moiety and methods for treating pain” (THE ARIZONA BOARD OF REGENTS ON BEHALF OF THE UNIVERSITY OF …, priority 2014, dated 2021):
“And” between values parts separate entries of the source, which are not always exact repeats. Identical values can stand only once. Like-named read-outs stand apart in the source and are kept apart here. Non-standard residues stand in square brackets, D forms with d. Residues, ends and D or L forms follow the SMILES beside them. *: point of attachment. NH(3,5-(CF3)2-benzyl) = FC(F)(F)c1cc(CN*)cc(C(F)(F)F)c1; NMePhe(4-F) = CN[C@@H](Cc1ccc(F)cc1)C(=O)O; Phe(4-F) = N[C@@H](Cc1ccc(F)cc1)C(=O)O; Dmt = Cc1cc(O)cc(C)c1C[C@H](N)C(=O)O; NMeF = CN[C@@H](Cc1ccccc1)C(=O)O

Experiments:
MOR [1] = assay: Radioligand binding assay at μ opioid receptor; conditions: for Log[IC50±] (μ): log IC50 ± error; for Ki^μ/Ki^δ: ratio of binding affinities MOR/DOR
Procedure: (§1) Binding affinities of these ligands were measured on radioligand binding assays. […] ([43]).

DOR [2] = target: DOR (Homo sapiens, UniProt P41143); assay: Radioligand binding assay at δ opioid receptor; conditions: for Ki: Ki^δ (nM)
Sequence of DOR (Homo sapiens, UniProt P41143) (P41143 whole entry): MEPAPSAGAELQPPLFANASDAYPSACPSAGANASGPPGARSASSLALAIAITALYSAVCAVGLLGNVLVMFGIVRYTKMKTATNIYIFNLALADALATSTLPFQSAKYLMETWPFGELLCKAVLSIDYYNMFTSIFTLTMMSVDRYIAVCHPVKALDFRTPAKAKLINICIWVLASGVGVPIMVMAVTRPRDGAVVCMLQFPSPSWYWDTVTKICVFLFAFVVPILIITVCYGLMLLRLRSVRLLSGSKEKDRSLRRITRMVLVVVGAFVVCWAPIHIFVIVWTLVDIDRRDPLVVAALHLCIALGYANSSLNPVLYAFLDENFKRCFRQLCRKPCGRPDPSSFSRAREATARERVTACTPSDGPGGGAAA
Procedure: as §1

hNK1 = target: T1, hNK1 (Homo sapiens, UniProt P25103); assay: hNK1/CHO cell membrane radioligand binding assay ([3H]SP); conditions: for Ki: hNK1/CHO membranes, [3H]SP; for Ki^hNK1/Ki^rNK1: ratio human/rat NK1
T1 construct: expressed in transfected cells; host or cells: CHO
T1 sequence (P25103 whole entry): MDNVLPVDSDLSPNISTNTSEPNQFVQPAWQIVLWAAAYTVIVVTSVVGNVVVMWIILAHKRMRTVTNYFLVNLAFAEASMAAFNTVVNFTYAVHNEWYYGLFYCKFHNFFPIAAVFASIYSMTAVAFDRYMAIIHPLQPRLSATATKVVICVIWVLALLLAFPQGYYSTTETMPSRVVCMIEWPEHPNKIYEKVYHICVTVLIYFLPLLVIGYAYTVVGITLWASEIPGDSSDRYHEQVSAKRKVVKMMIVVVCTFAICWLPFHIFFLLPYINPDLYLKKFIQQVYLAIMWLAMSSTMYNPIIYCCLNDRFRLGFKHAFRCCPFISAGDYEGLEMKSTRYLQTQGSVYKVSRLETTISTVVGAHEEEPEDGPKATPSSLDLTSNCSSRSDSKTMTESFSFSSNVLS

rNK1 = rNK1 (Rattus norvegicus, UniProt P14600); assay: Radioligand binding assay at rat NK1 receptor
Sequence of rNK1 (P14600 whole entry): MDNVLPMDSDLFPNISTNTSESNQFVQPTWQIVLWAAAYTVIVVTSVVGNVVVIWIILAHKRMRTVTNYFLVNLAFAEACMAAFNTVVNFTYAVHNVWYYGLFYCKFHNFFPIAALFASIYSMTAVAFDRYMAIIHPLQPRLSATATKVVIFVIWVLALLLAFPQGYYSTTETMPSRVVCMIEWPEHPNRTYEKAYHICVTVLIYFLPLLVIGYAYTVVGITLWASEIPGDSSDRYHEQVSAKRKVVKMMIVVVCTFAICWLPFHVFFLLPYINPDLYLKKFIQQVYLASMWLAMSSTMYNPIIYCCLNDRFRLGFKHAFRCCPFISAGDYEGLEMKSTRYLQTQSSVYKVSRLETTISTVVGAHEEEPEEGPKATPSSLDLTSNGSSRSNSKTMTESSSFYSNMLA
Procedure: as §1

DOR [3] = target: T2, DOR (Mus musculus, UniProt P32300); assay: Mouse isolated vas deferens (MVD) functional assay; assay type: cell-based
T2 construct: Male ICR mice under CO2 anesthesia were sacrificed by cervical dislocation and the vasa differentia removed; from tissue; host or cells: mouse vas deferens (ICR mice)
T2 sequence (P32300 whole entry): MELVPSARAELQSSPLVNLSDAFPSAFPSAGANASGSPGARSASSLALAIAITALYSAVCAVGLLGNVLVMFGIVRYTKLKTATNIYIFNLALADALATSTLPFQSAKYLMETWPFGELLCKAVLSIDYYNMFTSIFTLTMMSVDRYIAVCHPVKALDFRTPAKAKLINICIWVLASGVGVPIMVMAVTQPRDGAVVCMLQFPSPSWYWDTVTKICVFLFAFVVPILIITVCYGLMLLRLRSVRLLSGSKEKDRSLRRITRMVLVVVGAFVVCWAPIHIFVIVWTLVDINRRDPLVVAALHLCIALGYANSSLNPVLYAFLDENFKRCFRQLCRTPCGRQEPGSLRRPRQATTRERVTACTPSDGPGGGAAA

NK1R = target: T3, NK1R (Cavia porcellus, UniProt P30547); assay: GPI/LMMP functional assay at NK1R (agonist and antagonist testing); assay type: cell-based, guinea pig; conditions: for GPI/LMMP (NK1R) Agonist: agonist activity at the concentration in the cell
T3 construct: The longitudinal muscle with myenteric plexus (LMMP) was carefully separated from the circular muscle; from tissue; host or cells: guinea pig ileum longitudinal muscle with myenteric plexus
T3 sequence (P30547 whole entry): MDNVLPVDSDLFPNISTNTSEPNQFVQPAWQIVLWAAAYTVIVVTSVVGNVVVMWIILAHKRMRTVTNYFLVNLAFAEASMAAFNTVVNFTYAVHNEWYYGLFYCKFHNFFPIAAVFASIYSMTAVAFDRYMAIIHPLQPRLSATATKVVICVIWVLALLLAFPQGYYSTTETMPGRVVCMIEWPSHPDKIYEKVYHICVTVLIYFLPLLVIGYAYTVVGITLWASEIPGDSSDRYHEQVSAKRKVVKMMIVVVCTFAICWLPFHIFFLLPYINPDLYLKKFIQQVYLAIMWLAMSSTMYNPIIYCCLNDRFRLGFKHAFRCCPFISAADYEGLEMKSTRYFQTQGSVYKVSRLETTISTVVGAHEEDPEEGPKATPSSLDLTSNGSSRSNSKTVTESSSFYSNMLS

MOR [4] = assay: Guinea pig isolated ileum (GPI) functional assay; assay type: cell-based
[5] = MVD (DOR) IC50 (nM), agonist activity, electrically stimulated tissue
[6] = GPI/LMMP (NK1R) Ke (nM) ± S.E.M., antagonist activity
[7] = agonist activity, electrically stimulated tissue, read-out: GPI (MOR) IC50
[8] = head of Table IX, read-out: GPI (MOR) ID50

| Compound | Ki (MOR [1]) [nM] | Log[IC50±] (μ) (MOR [1]) | Ki^μ/Ki^δ (MOR [1]) | IC50 (DOR [2]) [nM] | Ki (hNK1; Ki^hNK1 (nM)) | Ki^hNK1/Ki^rNK1 (hNK1) | Ki (rNK1; Ki^rNK1 (nM)) | IC50 (DOR [3]; [5]) | Kb (NK1R; [6]) | GPI/LMMP (NK1R) Agonist (NK1R) | Ki (DOR [2]) [nM] | binding selectivity for MOR over DOR (MOR [1]) [times] | GPI/MVD IC50 ratio (MOR [4]) | IC50 (MOR [4]; [7]) | IC50 (DOR [3]) [nM] | higher agonist activity at DOR compared to MOR (functional assays) (DOR [3]) [times] | Kb (NK1R) [nM] | IC50 (MOR [4]; [8]) [nM] | Ki (hNK1; read-out: Ki^hNK1) [nM] | Ki (rNK1; read-out: Ki^rNK1) [nM] |
| --- | --- | --- | --- | --- | --- | --- | --- | --- | --- | --- | --- | --- | --- | --- | --- | --- | --- | --- | --- | --- |
| CC(C)C[C@H](NC(=O)[C@@H]1CCCN1C(=O)[C@@H](CO)NC(=O)[C@H](Cc1ccccc1)NC(=O)CNC(=O)[C@@H](C)NC(=O)[C@@H](N)Cc1ccc(O)cc1)C(=O)N[C@@H](Cc1c[nH]c2ccccc12)C(=O)NCc1cc(C(F)(F)F)cc(C(F)(F)F)c1 [AKG101] | 200 | −6.35 ± 0.26 | 6/1 | 74.1 | 3 nM | 1/39 | 110 nM | 6.7 nM and 6.72 nM | 28 ± 11.8 nM | None at 100 nM |  |  |  |  |  |  |  |  |  |  |
| CC(C)C[C@H](NC(=O)[C@@H]1CCCN1C(=O)[C@H](CC(N)=O)NC(=O)[C@H](Cc1ccccc1)NC(=O)CNC(=O)[C@@H](C)NC(=O)[C@@H](N)Cc1ccc(O)cc1)C(=O)N[C@@H](Cc1c[nH]c2ccccc12)C(=O)NCc1cc(C(F)(F)F)cc(C(F)(F)F)c1 [AKG104] |  | −6.93 ± 0.05 | 3/1 | 37.2 |  |  | 20 nM |  |  |  | 17 |  |  |  |  |  |  |  |  |  |
| CC(C)C[C@H](NC(=O)[C@@H]1CCCN1C(=O)[C@H](CCC(N)=O)NC(=O)[C@H](Cc1ccccc1)NC(=O)CNC(=O)[C@@H](C)NC(=O)[C@@H](N)Cc1ccc(O)cc1)C(=O)N[C@@H](Cc1c[nH]c2ccccc12)C(=O)NCc1cc(C(F)(F)F)cc(C(F)(F)F)c1 [AKG105] |  | −7.06 ± 0.18 |  | 20.4 | 1 nM |  | 12 nM |  |  |  | 9 |  |  |  |  |  |  |  |  |  |
| CC(C)C[C@H](NC(=O)[C@@H]1CCCN1C(=O)CNC(=O)[C@H](Cc1ccccc1)N(C)C(=O)CNC(=O)[C@@H](C)NC(=O)[C@@H](N)Cc1ccc(O)cc1)C(=O)N[C@@H](Cc1c[nH]c2ccccc12)C(=O)NCc1cc(C(F)(F)F)cc(C(F)(F)F)c1 [AKG113, H-Tyr-D-Ala-Gly-NMePhe-Gly-Pro-Leu-Trp-NH-Bn(3′,5′-(CF3)2)] (H-Y[dA]G[NMeF]GPLW-{NH(3,5-(CF3)2-benzyl)}) | 3 | −8.23 ± 0.03 | 1/15 | 100 |  | 1/4 | 60 nM | 38.7 ± 9.69 nM | 14.9 ± 2.9 nM | None at 100 nM | 46 | 15 | 2/1 | 79.2 nM |  |  |  |  |  |  |
| CC(C)C[C@H](NC(=O)[C@@H]1CCCN1C(=O)c1ccc(CNC(=O)[C@H](Cc2ccccc2)N(C)C(=O)CNC(=O)[C@@H](C)NC(=O)[C@@H](N)Cc2ccc(O)cc2)cc1)C(=O)N[C@@H](Cc1c[nH]c2ccccc12)C(=O)NCc1cc(C(F)(F)F)cc(C(F)(F)F)c1 [AKG125, H-Tyr-D-Ala-Gly-NMePhe-4-Amb-Pro-Leu-Trp-NH-Bn(3′,5′-(CF3)2)] | 5 | −7.92 ± 0.11 |  | 263 | 2.3 nM | 1/13 | 30 nM |  |  | None at 100 nM |  | 23 | 10/1 | 470 nM and 471 nM | 46.3 ± 13.4 | 10 | 8.36 ± 4.12 |  |  |  |
| CC(C)C[C@H](NC(=O)[C@@H]1CCCN1C(=O)CNC(=O)[C@H](Cc1ccc(F)cc1)NC(=O)CNC(=O)[C@@H](C)NC(=O)[C@@H](N)Cc1ccc(O)cc1)C(=O)N[C@@H](Cc1c[nH]c2ccccc12)C(=O)NCc1cc(C(F)(F)F)cc(C(F)(F)F)c1 [AKG130, H-Tyr-D-Ala-Gly-Phe(4-F)-Gly-Pro-Leu-Trp-NH-Bn(3′,5′-(CF3)2)] (H-Y[dA]G[Phe(4-F)]GPLW-{NH(3,5-(CF3)2-benzyl)}) | 9 | −7.69 ± 0.06 | 2/1 | 11 | 1.54 nM | 1/47 | 72 nM | 11.9 ± 1.56 nM | 11 nM and 10.6 nM | None at 300 nM | 5 |  |  | 340 nM and 339 nM |  |  |  |  |  |  |
| CC(C)C[C@H](NC(=O)[C@@H]1CCCN1C(=O)CNC(=O)[C@H](Cc1ccc(F)cc1)N(C)C(=O)CNC(=O)[C@@H](C)NC(=O)[C@@H](N)Cc1ccc(O)cc1)C(=O)N[C@@H](Cc1c[nH]c2ccccc12)C(=O)NCc1cc(C(F)(F)F)cc(C(F)(F)F)c1 [AKG131, H-Tyr-D-Ala-Gly-NMePhe(4-F)-Gly-Pro-Leu-Trp-NH-Bn(3′,5′-(CF3)2)] (H-Y[dA]G[NMePhe(4-F)]GPLW-{NH(3,5-(CF3)2-benzyl)}) |  | −6.40 ± 0.32 | 11/1 | 38 | 2 nM | 1/8 | 89 nM | 30 nM and 29.7 nM | 35.8 ± 10.8 nM | None at 100 nM | 17 |  | 2/1 | 63 nM and 62.5 nM |  |  |  |  |  |  |
| Cc1cc(O)cc(C)c1C[C@H](N)C(=O)N[C@H](C)C(=O)NCC(=O)N(C)[C@@H](Cc1ccccc1)C(=O)N[C@@H](CO)C(=O)N1CCC[C@H]1C(=O)N[C@@H](CC(C)C)C(=O)N[C@@H](Cc1c[nH]c2ccccc12)C(=O)NCc1cc(C(F)(F)F)cc(C(F)(F)F)c1 [AKG132] (H-[Dmt][dA]G[NMeF]SPLW-{NH(3,5-(CF3)2-benzyl)}) | 0.4 | −9.03 ± 0.06 | 1/5 | 5.25 | 5.6 nM and 5.61 nM | 1/6 | 36 nM | 7.66 ± 2.03 nM | 19.8 ± 2.9 nM | None at 30 nM | 2 |  |  | 43 nM |  |  |  | 42.6 ± 6 |  |  |
| CC(C)C[C@H](NC(=O)[C@@H]1CCCN1C(=O)[C@H](CO)NC(=O)[C@H](Cc1ccc(F)cc1)N(C)C(=O)CNC(=O)[C@@H](C)NC(=O)[C@@H](N)Cc1ccc(O)cc1)C(=O)N[C@@H](Cc1c[nH]c2ccccc12)C(=O)NCc1cc(C(F)(F)F)cc(C(F)(F)F)c1 [AKG134] (H-Y[dA]G[NMePhe(4-F)]SPLW-{NH(3,5-(CF3)2-benzyl)}) | 2 | −8.27 ± 0.11 | 1/4 | 14.5 | 7.95 ± 0.87 nM | 1/6 | 50.2 ± 16.9 nM | 8.94 ± 0.795 nM | 1.86 ± 0.43 nM | None at 30 nM | 7 |  | 21/1 |  |  |  |  | 184 ± 30.9 |  |  |
| Cc1cc(O)cc(C)c1C[C@H](N)C(=O)N[C@H](C)C(=O)NCC(=O)N(C)[C@@H](Cc1ccc(F)cc1)C(=O)N[C@@H](CO)C(=O)N1CCC[C@H]1C(=O)N[C@@H](CC(C)C)C(=O)N[C@@H](Cc1c[nH]c2ccccc12)C(=O)NCc1cc(C(F)(F)F)cc(C(F)(F)F)c1 [AKG135] (H-[Dmt][dA]G[NMePhe(4-F)]SPLW-{NH(3,5-(CF3)2-benzyl)}; N-terminus assumed) | 0.5 | −8.93 ± 0.09 | 1/1 | 1 | 7.26 ± 0.59 nM | 1/7 | 51.7 ± 16.2 nM | 15.4 ± 5.4 nM | 28.7 ± 11.1 nM | None at 100 nM | 0.5 |  | 2/1 | 23 nM |  |  |  | 23.4 ± 4.74 |  |  |
| CC(C)C[C@H](NC(=O)[C@@H]1CCCN1C(=O)CNC(=O)[C@H](CCC(N)=O)NC(=O)[C@H](Cc1ccccc1)N(C)C(=O)CNC(=O)[C@@H](C)NC(=O)[C@@H](N)Cc1ccc(O)cc1)C(=O)N[C@@H](Cc1c[nH]c2ccccc12)C(=O)NCc1cc(C(F)(F)F)cc(C(F)(F)F)c1 [AKG-SK-145] (H-Y[dA]G[NMeF]QGPLW-{NH(3,5-(CF3)2-benzyl)}) | 2 | −8.43 ± 0.08 | 1/3 | 14.5 | 7.5 nM | 1/16 | 120 nM and 125 nM |  |  |  | 6 |  |  |  |  |  |  |  |  |  |
| Cc1cc(O)cc(C)c1C[C@H](N)C(=O)N[C@H](C)C(=O)NCC(=O)N(C)[C@@H](Cc1ccccc1)C(=O)N[C@@H](CCC(N)=O)C(=O)NCC(=O)N1CCC[C@H]1C(=O)N[C@@H](CC(C)C)C(=O)N[C@@H](Cc1c[nH]c2ccccc12)C(=O)NCc1cc(C(F)(F)F)cc(C(F)(F)F)c1 [AKG-SK-146] (H-[Dmt][dA]G[NMeF]QGPLW-{NH(3,5-(CF3)2-benzyl)}; N-terminus assumed) | 0.6 | −8.94 ± 0.17 | 1/1 | 1.41 | 6.37 ± 1.54 nM | 1/15 | 78.6 ± 9.8 nM |  |  |  | 0.6 |  |  |  |  |  |  |  |  |  |
| CC(C)C[C@H](NC(=O)[C@@H]1CCCN1C(=O)[C@H](Cc1ccccc1)NC(=O)CNC(=O)[C@@H](C)NC(=O)[C@@H](N)Cc1ccc(O)cc1)C(=O)N[C@@H](Cc1c[nH]c2ccccc12)C(=O)NCc1cc(C(F)(F)F)cc(C(F)(F)F)c1 [TY012, reference compound] |  | −7.7 ± 0.21 |  |  |  |  |  |  |  |  |  |  |  |  |  |  |  |  | 0.61 | 33 |
| CSCC[C@H](NC(=O)[C@H](Cc1ccccc1)NC(=O)CNC(=O)[C@@H](C)NC(=O)[C@@H](N)Cc1ccc(O)cc1)C(=O)N1CCC[C@H]1C(=O)N[C@@H](CC(C)C)C(=O)N[C@@H](Cc1c[nH]c2ccccc12)C(=O)NCc1cc(C(F)(F)F)cc(C(F)(F)F)c1 [TY027, H-Tyr-D-Ala-Gly-Phe-Met-Pro-Leu-Trp-NH-Bn(3′,5′-(CF3)2), reference compound] |  |  |  |  | 1.5 nM and 2 nM |  | 10 nM and 14 nM |  |  |  |  |  |  |  |  |  |  |  |  |  |
